Experimental data as given in the supplement of paper PMC5412046.

Legend:
SB.mhdgc-1 [1] = assay: viability at highest tested concentration (MAXR) relative to DMSO; higher = less cytotoxic; details: SB.mhdgc-1 (hereditary c.1380delA CDH1 gastric cancer)
Method in brief: (§1)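 A pintool delivered 23 nL of compound in DMSO to 1536-well plates holding 500 hereditary or sporadic patient-derived gastric cancer cells in 5 μL medium per well, at 11 concentrations in threefold steps. Following 48 h of exposure, cells were treated with CellTiter-Glo for 30 min at room temperature, and plates were read for luminescence on a ViewLux. The reported measure is viability normalised to DMSO, either at the top concentration or as trapezoidal area under the curve.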

SB.msgc-1 [2] = assay: as above; details: SB.msgc-1 (sporadic gastric cancer)
Method in brief: as §1

SB.mhdgc-1 [3] = assay: area under the dose-response curve of % viability (trapezoidal, 11 doses) (% viability x log10 concentration); higher = less cytotoxic; details: SB.mhdgc-1 (hereditary c.1380delA CDH1 gastric cancer)
Method in brief: as §1

SB.msgc-1 [4] = assay: as above; details: SB.msgc-1 (sporadic gastric cancer)
Method in brief: as §1

| SMILES | viability (SB.mhdgc-1 [1]) | viability (SB.msgc-1 [2]) | area under the dose-response curve (SB.mhdgc-1 [3]) | area under the dose-response curve (SB.msgc-1 [4]) |
| --- | --- | --- | --- | --- |
| CN(C)c1nc(N(C)C)nc(N(C)C)n1 [Altretamine] (top concentration 46.0829 µM) | 83.6% | 74.9% | 508 | 398 |
| CCCN1CCO[C@@H]2c3cc(O)ccc3OC[C@H]21 (top concentration 46.0829 µM) | 52.7% | 103% | 523 | 548 |
| COc1c(N2C[C@@H]3CCCN[C@@H]3C2)c(F)cc2c(=O)c(C(=O)O)cn(C3CC3)c12.Cl.O [Moxifloxacin hydrochloride] (top concentration 46.0829 µM) | 92.9% | 67.6% | 560 | 507 |
| Cc1cnc(-c2cc(N3CCN(C(=O)CC[S+](C)(=O)[O-])CC3)ncc2Cl)c(C)c1 (top concentration 46.0829 µM) | 58.1% | 92.6% | 447 | 516 |
| COc1ccc(C2CNC(=O)C2)cc1OC1CCCC1 (configuration not stated) [Rolipram] (top concentration 46.0829 µM) | 103% | 65.6% | 481 | 362 |
| O=C(O)CCCCCC(=O)NN=C1CCCC1 [IDE-2] (top concentration 46.0829 µM) | 91.6% | 103% | 525 | 507 |
| C[C@](Cc1c[nH]c2ccccc12)(NC(=O)OC1C2CC3CC(C2)CC1C3)C(=O)NC[C@H](NC(=O)CCC(=O)O)c1ccccc1 (some centres not stated) (top concentration 46.0829 µM) | 59.9% | 101% | 498 | 513 |
| Cc1c(C)c2c(c(C)c1O)CCC(C)(COc1ccc(CC3SC(=O)NC3=O)cc1)O2 (configuration not stated) [Troglitazone] (top concentration 46.0829 µM) | 98.6% | 69.9% | 544 | 471 |
| CCC(C)CCCCC(=O)N[C@@H](CCN)C(=O)NC(C(=O)N[C@H](CCN)C(=O)N[C@@H]1CCNC(=O)C([C@@H](C)O)NC(=O)[C@@H](CCN)NC(=O)[C@@H](CCN)NC(=O)[C@@H](CC(C)C)NC(=O)[C@H](Cc2ccccc2)NC(=O)[C@H](CCN)NC1=O)[C@@H](C)O (some centres not stated) [Polymyxin B sulphate] (top concentration 46.0829 µM) | 109% | 102% | 563 | 527 |
| CNC(=O)C1=CC=C(C)C(=C1)N2C(=C/C(=C(/Br)C2=O)OCC3=C(F)C=C(F)C=C3)\C (top concentration 46.0829 µM) | 63.9% | 72.6% | 496 | 473 |
| C=C1/C(=C\C=C2/CCC[C@]3(C)[C@@H]([C@H](C)/C=C/[C@H](C)C(C)C)CC[C@@H]23)C[C@@H](O)C[C@@H]1O [Doxercalciferol] (top concentration 46.0829 µM) | 18.7% | 3.9% | 369 | 340 |
| CCNC(=O)C[C@H]1/N=C(/C2=CC=C(Cl)C=C2)C3=CC(=CC=C3[N]4C(=NN=C14)C)OC (top concentration 46.0829 µM) | 36% | 25.9% | 476 | 439 |
| Nc1nc(Nc2ccc([S+](N)(=O)[O-])cc2)nn1C(=O)c1c(F)cccc1F (top concentration 46.0829 µM) | 63.7% | 49.1% | 459 | 433 |
| O=c1[nH]c2ccccc2n1C1CCN(Cc2ccc(-c3nc4cc5nc[nH]c5cc4nc3-c3ccccc3)cc2)CC1 [AKT inhibitor VIII] (top concentration 46.0829 µM) | 44.3% | 38.8% | 419 | 482 |
| COc1c(O)cc2c(c1O)[C@@H]1O[C@H](CO)[C@@H](O)[C@H](O)[C@H]1OC2=O [Bergenin] (top concentration 46.0829 µM) | 88.2% | 115% | 571 | 567 |
| CN1CCN(c2cccc(Nc3nc4c(-c5ccc([S+](C)(=O)[O-])cc5)cccn4n3)c2)CC1 (top concentration 46.0829 µM) | 71.6% | 68% | 450 | 494 |
| O=C(NCC[S+](=O)([O-])c1ccc(C(F)(F)F)cn1)c1ccc(Cl)cc1 [GSK-3787] (top concentration 46.0829 µM) | 75% | 86.7% | 516 | 510 |
| CCN(CC)CCCC(C)Nc1ccnc2cc(Cl)ccc12 (configuration not stated) [Chloroquine (CQ)] (top concentration 46.0829 µM) | 23.6% | 47.3% | 507 | 456 |
| C[N+](C)(C)CC(=O)O.[Cl-] [Betaine] (top concentration 46.0829 µM) | 46.7% | 74% | 426 | 507 |
| COc1cc([C@@H]2c3cc4c(cc3[C@@H](O[C@@H]3O[C@@H]5CO[C@@H](c6cccs6)O[C@H]5[C@H](O)[C@H]3O)[C@H]3COC(=O)[C@H]23)OCO4)cc(OC)c1O [Teniposide] (top concentration 46.0829 µM) | 18.7% | 26.6% | 243 | 344 |
| CC(C)Cn1cnc2c(N)nc3ccccc3c21 [Imiquimod] (top concentration 46.0829 µM) | 42.7% | 44.5% | 439 | 511 |
| CC1OC(OC/2=C(/OC3=C(C(=CC(=C3)O)O)C2=O)C4=CC=C(O)C=C4)C(O)C(OC(C)=O)C1OC(C)=O (configuration not stated) [SL-0101-1] (top concentration 46.0829 µM) | 83.7% | 104% | 536 | 536 |
| COc1cc2c(cc1OC)CC(=O)N(CCCN(C)C[C@H]1Cc3cc(OC)c(OC)cc31)CC2.Cl [Ivabradine hydrochloride] (top concentration 46.0829 µM) | 60.9% | 70.4% | 503 | 559 |
